Assays:
Format in all cases: in vivo
[1] = system: oilseed rape (Brassica napus); test: Test D pre-/postemergence plant response; conditions: Postemergence; for Oilseed Rape plant response rating: 31 g ai/ha, scale 0 to 100 (0 no effect, 100 complete control); for Plant response rating, Oilseed Rape: scale 0 to 100, 0 no effect, 100 complete control
How it was run: (§1)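 Visual injury scoring (0–100) at 13 to 15 days in greenhouse. Preemergence sprays on seeded loam/sand; postemergence sprays on 1–4 leaf plants.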

[2] = system: galium (catchweed bedstraw, Galium aparine); test: Test D pre-/postemergence plant response; conditions: Postemergence; for Galium plant response rating: 31 g ai/ha, scale 0 to 100 (0 no effect, 100 complete control); for Plant response rating, Galium: scale 0 to 100, 0 no effect, 100 complete control
How it was run: as §1

[3] = system: winter wheat (Triticum aestivum); test: Test D pre-/postemergence plant response; conditions: Postemergence; for Wheat plant response rating: 31 g ai/ha, scale 0 to 100 (0 no effect, 100 complete control); for Plant response rating, Wheat: scale 0 to 100, 0 no effect, 100 complete control
How it was run: as §1

[4] = system: lambsquarters (Chenopodium album); test: Test D pre-/postemergence plant response; conditions: Postemergence; for Lambsquarters plant response rating: 31 g ai/ha, scale 0 to 100 (0 no effect, 100 complete control); for Plant response rating, Lambsquarters: scale 0 to 100, 0 no effect, 100 complete control
How it was run: as §1

[5] = system: corn (Zea mays); test: Test D pre-/postemergence plant response; conditions: Postemergence; for Corn plant response rating: scale 0 to 100 (0 no effect, 100 complete control); for Plant response rating, Corn: scale 0 to 100, 0 no effect, 100 complete control
How it was run: as §1

[6] = system: Italian ryegrass (Lolium multiflorum); test: Test D pre-/postemergence plant response; conditions: Postemergence; for Ryegrass, Italian plant response rating: 31 g ai/ha, scale 0 to 100 (0 no effect, 100 complete control); for Plant response rating, Ryegrass, Italian: scale 0 to 100, 0 no effect, 100 complete control
How it was run: as §1

[7] = system: velvetleaf (Abutilon theophrasti); test: Test D pre-/postemergence plant response; conditions: Postemergence; for Velvetleaf plant response rating: 31 g ai/ha, scale 0 to 100 (0 no effect, 100 complete control); for Plant response rating, Velvetleaf: scale 0 to 100, 0 no effect, 100 complete control
How it was run: as §1

[8] = system: ducksalad (Heteranthera limosa); test: Test C flooded paddy test plant response; conditions: Flood, 250 g ai/ha; scale of 0 to 100 where 0 is no effect and 100 is complete control; 13 to 15 days
How it was run: (§2)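 Flooded-pot format, 3 cm water over soil maintained for the test duration; test compounds dispensed into the water at the 2-leaf stage. Greenhouse holding 13 to 15 days. Plants evaluated visually relative to untreated controls, 0 meaning no effect and 100 complete control.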

[9] = system: small-flower umbrella sedge (Cyperus difformis); test: Test C flooded paddy test plant response; conditions: Flood, 250 g ai/ha; scale of 0 to 100 where 0 is no effect and 100 is complete control; 13 to 15 days
How it was run: as §2

[10] = system: barnyardgrass (Echinochloa crus-galli); test: Test C flooded paddy test plant response; conditions: Flood, 250 g ai/ha; scale of 0 to 100 where 0 is no effect and 100 is complete control; 13 to 15 days
How it was run: as §2

[11] = system: rice (Oryza sativa); test: Test C flooded paddy test plant response; conditions: Flood, 250 g ai/ha; scale of 0 to 100 where 0 is no effect and 100 is complete control; 13 to 15 days
How it was run: as §2

[12] = system: kochia (Kochia scoparia); test: Test B pre-/postemergence plant response
How it was run: (§3)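 Seeds in loam–sand blend given preemergence soil spray; separately, plants at one- to two-leaf stage (2–10 cm) sprayed postemergence, compounds in non-phytotoxic solvent with surfactant. Injury rated visually versus untreated controls after ~10 days in greenhouse, 0 (no effect) to 100 (complete control).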

[13] = system: Italian ryegrass (Lolium multiflorum); test: Test B pre-/postemergence plant response
How it was run: as §3

[14] = system: ragweed (common ragweed, Ambrosia elatior); test: Test B pre-/postemergence plant response
How it was run: as §3

[15] = 125 g ai/ha, postemergence, 0 to 100 scale, 0 no effect, 100 complete control
[16] = Postemergence, 500 g ai/ha, 0 to 100 scale (0 no effect, 100 complete control)
[17] = Preemergence, 125 g ai/ha, 0 to 100 scale (0 no effect, 100 complete control)
[18] = Preemergence, 500 g ai/ha, 0 to 100 scale where 0 is no effect and 100 is complete control

FC(F)(F)c1cc(-c2c(Cl)cccc2Oc2ncc(Cl)cn2)no1 [Compound 169]
Oilseed Rape plant response rating [1]: 5
Plant response rating, Oilseed Rape ([1]; 62 g ai/ha): 10
Plant response rating, Oilseed Rape ([1]; 125 g ai/ha): 60
Galium plant response rating [2]: 70
Plant response rating, Galium ([2]; 62 g ai/ha): 70
Plant response rating, Galium ([2]; 125 g ai/ha): 75
Wheat plant response rating [3]: 5
Plant response rating, Wheat ([3]; 62 g ai/ha): 10
Plant response rating, Wheat ([3]; 125 g ai/ha): 10
Lambsquarters plant response rating [4]: 40
Plant response rating, Lambsquarters ([4]; 62 g ai/ha): 35
Plant response rating, Lambsquarters ([4]; 125 g ai/ha): 80
Corn plant response rating ([5]; 16 g ai/ha): 0
Corn plant response rating ([5]; 31 g ai/ha): 5
Plant response rating, Corn ([5]; 62 g ai/ha): 10
Plant response rating, Corn ([5]; 125 g ai/ha): 10
Ryegrass, Italian plant response rating [6]: 0
Plant response rating, Ryegrass, Italian ([6]; 62 g ai/ha): 5
Plant response rating, Ryegrass, Italian ([6]; 125 g ai/ha): 15
Velvetleaf plant response rating [7]: 10
Plant response rating, Velvetleaf ([7]; 62 g ai/ha): 20
Plant response rating, Velvetleaf ([7]; 125 g ai/ha): 30
Ducksalad plant response rating [8]: 0
Sedge, Umbrella plant response rating [9]: 0
Barnyardgrass plant response rating [10]: 0
Rice plant response rating [11]: 0
Plant response rating, Kochia [12, 15]: 90
Plant response rating, Kochia [12, 16]: 90
Kochia plant response rating [12, 17]: 70
Plant response rating, Kochia [12, 18]: 90
Plant response rating, Ryegrass, Italian [13, 15]: 20
Plant response rating, Ryegrass, Italian [13, 16]: 50
Ryegrass, Italian plant response rating [13, 17]: 0
Plant response rating, Ryegrass, Italian [13, 18]: 20
Plant response rating, Ragweed [14, 15]: 20
Plant response rating, Ragweed [14, 16]: 30
Ragweed plant response rating [14, 17]: 10
Plant response rating, Ragweed [14, 18]: 20

FC(F)(F)c1cc(-c2c(Br)cccc2Oc2ncc(Cl)cn2)no1 [Compound 170]
Oilseed Rape plant response rating [1]: 5
Plant response rating, Oilseed Rape ([1]; 62 g ai/ha): 40
Plant response rating, Oilseed Rape ([1]; 125 g ai/ha): 25
Galium plant response rating [2]: 50
Plant response rating, Galium ([2]; 62 g ai/ha): 65
Plant response rating, Galium ([2]; 125 g ai/ha): 80
Wheat plant response rating [3]: 20
Plant response rating, Wheat ([3]; 62 g ai/ha): 10
Plant response rating, Wheat ([3]; 125 g ai/ha): 15
Lambsquarters plant response rating [4]: 40
Plant response rating, Lambsquarters ([4]; 62 g ai/ha): 40
Plant response rating, Lambsquarters ([4]; 125 g ai/ha): 80
Corn plant response rating ([5]; 16 g ai/ha): 5
Corn plant response rating ([5]; 31 g ai/ha): 5
Plant response rating, Corn ([5]; 62 g ai/ha): 5
Plant response rating, Corn ([5]; 125 g ai/ha): 5
Ryegrass, Italian plant response rating [6]: 0
Plant response rating, Ryegrass, Italian ([6]; 62 g ai/ha): 5
Plant response rating, Ryegrass, Italian ([6]; 125 g ai/ha): 5
Velvetleaf plant response rating [7]: 5
Plant response rating, Velvetleaf ([7]; 62 g ai/ha): 25
Plant response rating, Velvetleaf ([7]; 125 g ai/ha): 25
Ducksalad plant response rating [8]: 0
Sedge, Umbrella plant response rating [9]: 0
Barnyardgrass plant response rating [10]: 0
Rice plant response rating [11]: 0
Plant response rating, Kochia [12, 15]: 70
Plant response rating, Kochia [12, 16]: 100
Kochia plant response rating [12, 17]: 30
Plant response rating, Kochia [12, 18]: 80
Plant response rating, Ryegrass, Italian [13, 15]: 0
Plant response rating, Ryegrass, Italian [13, 16]: 20
Ryegrass, Italian plant response rating [13, 17]: 0
Plant response rating, Ryegrass, Italian [13, 18]: 20
Plant response rating, Ragweed [14, 15]: 10
Plant response rating, Ragweed [14, 16]: 50
Ragweed plant response rating [14, 17]: 20
Plant response rating, Ragweed [14, 18]: 60

Source: patent US10131652B2, “Pyrimidinyloxy benzene derivatives as herbicides” (E. I. DU PONT DE NEMOURS AND COMPANY, priority 2014, dated 2018)
